Measured values as given in patent US8357365B2, “Granulysin peptides and methods of use thereof” (The Regents of the University of California, priority 2005, dated 2013).
“Also recorded” adds a separate entry of the source.

Assays:
[1] = tested on: Escherichia coli; conditions: earlier study, Ernst et al., 2000; cited from earlier work
[2] = tested on: Propionibacterium acnes strain ATCC 6919; experiment: CFU assay of antimicrobial activity against P. acnes; type: cell-based; conditions: for reduction of the number of viable P. acnes: 100 μM of peptide (FIG. 1B)
Procedure: CFU assay. The CFU assay was performed as described previously (Ernst et al., (2000) Immunol 165:7102-7108). Propionibacterium acnes strain ATCC 6919 (American Type Cell Culture, Manassas, Va.) was grown under anaerobic conditions in Reinforced Clostridial Medium (Oxoid, Basingstroke, England) for two days and collected in mid-log phase. The bacteria were washed three times with the assay buffer, 10 mM sodium phosphate, pH 7.2, supplemented with 0.03% trypticase soy broth (TSB, Becton-Dickinson, Cockeysville, Md.), and enumerated by applying a conversion factor of 7.5×10^7 bacteria/mL=1 OD unit at 600 nm. Various concentrations of granulysin or granulysin peptides were incubated with 3.75×10^5 bacteria in a final volume of 30 μL at 37° C. for four hours. […] Plates were incubated for four days at 37° C. under anaerobic conditions, then individual colonies were counted and the number of CFU per tube was calculated.

[3] = tested on: Mycobacterium tuberculosis; conditions: earlier study, Ernst et al., 2000; cited from earlier work
[4] = tested on: inflammatory cytokines and chemokines; experiment: P. acnes-stimulated production of cytokines and chemokines by monocytes; type: cell-based; conditions: primary human monocytes (FIG. 5)
Procedure: (§1) Primary Human Monocyte Isolation and Stimulation. Peripheral human blood was drawn from normal healthy volunteers into heparinized tubes according to a protocol approved by the Institutional Review Board at UCLA. PBMCs were then isolated on Ficoll-Paque gradients (Pharmacia, Piscataway, N.J.) and plated (5×10^5/well) in 96-well plates for 2 hours in 1% FCS (Omega Scientific, Tarzana, Calif.). Non-adherent cells were removed by washing 3 times with RPMI media, leaving adherent cells. Adherent monocytes were cultured in 10% FCS with P. acnes sonicate, granulysin peptides, or P. acnes sonicate together with various concentrations of granulysin peptide for 24 hours at 37° C. Monocyte supernatants were harvested and assayed for IL-12p40 using cytokine-specific, commercially available antibody pairs in a standard sandwich ELISA (Biosource International, Camarillo, Calif., or BD PharMingen, San Diego, Calif.). Capture antibodies were coated to 96-well EIA/RIA plates (Costar, Corning) and detection was achieved by incubating with biotinylated antibodies followed by Immunopure HRP-conjugated streptavidin (Pierce, Rockford, Ill.) and the ABTS Microwell Peroxidase Substrate System (Kirkegaard & Perry Laboratories, Gaithersburg, Md.). The absorbance at 405 nm was read using a microtiter plate reader, and cytokine concentrations were calculated from a standard curve of recombinant cytokine (Biosource or Pharmingen). Supernatants were assayed for other cytokines using Pierce SearchLight Multiplex Cytokine array services (Pierce Biotechnology, Woburn, Mass.).

[5] = tested on: IL-12p40; experiment: IL-12p40 ELISA, P. acnes-stimulated primary human monocytes; type: cell-based; conditions: compared to peptides 1-20 and 16-35 (FIG. 5A)
Procedure: as §1, with “Capture antibodies were coated to 96-well EIA/RIA plates (Costar, Corning) and detection was achieved by incubating with biotinylated antibodies followed by Immunopure HRP-conjugated streptavidin (Pierce, Rockford, Ill.) and the ABTS Microwell Peroxidase Substrate System (Kirkegaard & Perry Laboratories, Gaithersburg, Md.).” left out, “Supernatants were assayed for other cytokines using Pierce SearchLight Multiplex Cytokine array services (Pierce Biotechnology, Woburn, Mass.).” left out

[6] = tested on: IP-10; experiment: Cytokine array, P. acnes-stimulated monocytes, IP-10; type: cell-based, human
Procedure: as §1, with “Capture antibodies were coated to 96-well EIA/RIA plates (Costar, Corning) and detection was achieved by incubating with biotinylated antibodies followed by Immunopure HRP-conjugated streptavidin (Pierce, Rockford, Ill.) and the ABTS Microwell Peroxidase Substrate System (Kirkegaard & Perry Laboratories, Gaithersburg, Md.).” left out, “Supernatants were assayed for other cytokines using Pierce SearchLight Multiplex Cytokine array services (Pierce Biotechnology, Woburn, Mass.).” left out

[7] = tested on: P. acnes; experiment: Scanning and transmission electron microscopy of peptide-treated P. acnes; type: cell-based, Propionibacterium acnes; conditions: 1 hour to 72 hours of peptide treatment (FIG. 2B, 2C)
Procedure: Electron microscopy. P. acnes at a concentration of 2.08×10^7 bacteria/mL was suspended in 10 mM sodium phosphate buffer pH 7.2 supplemented with 0.03% TSB and incubated with […] granulysin peptides. Samples were then fixed for 30 minutes with 2% gluteraldehyde in 1×PBS, pH=7.35, room temperature, then washed three times and suspended in 1 mL 1×PBS. Scanning EM samples were filtered onto a micropore filter. The filters with the sample on top were dehydrated in graded ethanol; 50, 75, 95 and 100%-15 minutes in each, followed by similar transfers in hexa-methyl-disilazane reagent; 50, 75, 95%-30 minutes each followed by 100% hexa-methyl-disilazane reagent overnight. The scanning EM samples were gold coated and then viewed and photographed on a Cambridge Scanning electron microscope. Transmission EM samples were dehydrated in graded ethanol as above, embedded in Epon, and sectioned on Sorvall MT6000 (RMC, Tucson Ariz.). Thin sections ([…]) were stained with uranyl acetate, viewed and photographed on Jeol XC100 at 80-kV

[8] = tested on: MDC; experiment: Cytokine array, P. acnes-stimulated monocytes, MDC; type: cell-based, human
Procedure: as §1, with “Capture antibodies were coated to 96-well EIA/RIA plates (Costar, Corning) and detection was achieved by incubating with biotinylated antibodies followed by Immunopure HRP-conjugated streptavidin (Pierce, Rockford, Ill.) and the ABTS Microwell Peroxidase Substrate System (Kirkegaard & Perry Laboratories, Gaithersburg, Md.).” left out, “Supernatants were assayed for other cytokines using Pierce SearchLight Multiplex Cytokine array services (Pierce Biotechnology, Woburn, Mass.).” left out

[9] = tested on: MCP-1; experiment: Cytokine array, P. acnes-stimulated monocytes, MCP-1; type: cell-based, human
Procedure: as §1, with “Capture antibodies were coated to 96-well EIA/RIA plates (Costar, Corning) and detection was achieved by incubating with biotinylated antibodies followed by Immunopure HRP-conjugated streptavidin (Pierce, Rockford, Ill.) and the ABTS Microwell Peroxidase Substrate System (Kirkegaard & Perry Laboratories, Gaithersburg, Md.).” left out, “Supernatants were assayed for other cytokines using Pierce SearchLight Multiplex Cytokine array services (Pierce Biotechnology, Woburn, Mass.).” left out

Sequence | killing of Escherichia coli [1] | reduction of the number of viable P. acnes [2] | killing of Mycobacterium tuberculosis [3] | P. acnes-stimulated production of cytokines and chemokines [4] | other results
GRDYRTSLTIVQKLKKMVDKPTQRSVSNAATRVSR [1-35] | capable of killing | 2 logs | capable of killing | – | –
TGRSRWRDVSRNFMRRYQSRVIQGLVAGETAQQIS [36-70] | capable of killing | – | capable of killing | – | –
TRVSRTGRSRWRDVSRNFMR [31-50] | capable of killing | 4 logs | capable of killing | inhibit | –
TRVSRTGRSRWRDWSRNFMR [31-50v44w] | – | – | – | inhibit | P. acnes-stimulated production of IL-12p40 [5]: decreased; production of IP-10 [6]: inhibited; fewer bacteria as compared to incubation with peptide 31-50 ([2]; 32 μM of peptide (FIG. 2A)): 2-3 logs; effect on P. acnes surface by scanning and transmission EM [7]: perturbs the surface integrity of P. acnes; production of MDC [8]: inhibited; production of MCP-1 [9]: inhibited
TRVSRTGRSRWRDWSRNFMR [D-31-50v44w] (all D-amino acids) | – | – | – | decreased; also recorded: inhibit | antimicrobial potency in vitro as compared to 31-50v44w (D versus L form) ([2]; P. acnes): even greater potency; kind of antimicrobial activity against P. acnes (bacteriostatic or bactericidal) ([2]; comparison with widely used antibiotics (FIG. 3C)): bactericidal
